According to ChEMBL document CHEMBL4052738, “Design and synthesis of 4-morpholino-6-(1,2,3,6-tetrahydropyridin-4-yl)-N-(3,4,5-trimethoxyphenyl)-1,3,5-triazin-2-amine analogues as tubulin polymerization inhibitors” (Bioorg Med Chem Lett, 2017):
Active and inactive are the calls of the source. The rule behind the calls is not given here.

Columns and labels:
HeLa [1] = assay: Antiproliferative activity against human HeLa cells after 48 hrs by sulforhodamine B assay; type: functional, cell-based
HepG2 = assay: Antiproliferative activity against human HepG2 cells after 48 hrs by sulforhodamine B assay; type: functional, cell-based; conditions: HepG2, 48 h
A549 = assay: Antiproliferative activity against human A549 cells after 48 hrs by sulforhodamine B assay; type: functional, cell-based; conditions: A549, 48 h
MCF7 = assay: Antiproliferative activity against human MCF7 cells after 48 hrs by sulforhodamine B assay; type: functional, cell-based; conditions: MCF7, 48 h
HeLa [2] = assay: Inhibition of tubulin polymerization in human HeLa cells assessed as increase in soluble tubulin fraction at 1 mM after 24 hrs by immunoblot analysis; type: cell-based
HeLa [3] = assay: Inhibition of microtubule polymerization in human HeLa cells assessed as cell rounding at 1 mM after 24 hrs by DAPI staining-based immunofluorescence assay
HeLa [4] = assay: Induction of apoptosis in human HeLa cells assessed as increase in cyclin-B1 levels at 1 mM after 24 hrs by immunoblot analysis; type: functional, cell-based
[5] = Inhibition of porcine tubulin polymerization after 1 hr in presence of GTP; parameters: species or system Sus scrofa
HeLa [6] = assay: Inhibition of microtubule polymerization in human HeLa cells assessed as spindle fibres in nucleus at 1 mM after 24 hrs by DAPI staining-based immunofluorescence assay; type: cell-based
HeLa [7] = assay: Inhibition of tubulin polymerization in human HeLa cells assessed as increase in soluble tubulin fraction at 10 mM after 24 hrs by immunoblot analysis; type: cell-based
HeLa [8] = assay: Induction of apoptosis in human HeLa cells assessed as increase in cyclin-B1 levels at 10 mM after 24 hrs by immunoblot analysis; type: functional, cell-based
HeLa [9] = assay: Inhibition of microtubule polymerization in human HeLa cells assessed as cell rounding at 10 mM after 24 hrs by DAPI staining-based immunofluorescence assay
HeLa [10] = assay: Inhibition of microtubule polymerization in human HeLa cells assessed as spindle fibres in nucleus at 10 mM after 24 hrs by DAPI staining-based immunofluorescence assay; type: cell-based

| SMILES | IC50 (HeLa [1]) [µM] | IC50 (HepG2) [µM] | IC50 (A549) [µM] | IC50 (MCF7) [µM] | other results |
| --- | --- | --- | --- | --- | --- |
| COc1cc(Nc2nc(C3=CCN(C(=O)C(F)(F)F)CC3)nc(N3CCOCC3)n2)cc(OC)c1OC | 43.1 | 50.6 | 28.6 | 48.4 | – |
| CCN1CCN(C(=O)N2CC=C(c3nc(Nc4cc(OC)c(OC)c(OC)c4)nc(N4CCOCC4)n3)CC2)CC1 | 39.5 | 45.9 | 43.2 | 30 | – |
| COc1ccc(/C=C\c2cc(OC)c(OC)c(OC)c2)cc1O [COMBRETASTATIN A4] | 5.8 | 4.3 | 5.3 | 4.2 | – |
| COc1cc(Nc2nc(C3=CCN(C(=O)Nc4ccc(Cl)cc4)CC3)nc(N3CCOCC3)n2)cc(OC)c1OC | 30.7 | 34.9 | 35.9 | 29 | – |
| COc1ccc(C(=O)N2CC=C(c3nc(Nc4cc(OC)c(OC)c(OC)c4)nc(N4CCOCC4)n3)CC2)cc1 | 43 | 30.6 | 33.3 | 32.1 | – |
| COc1ccc(S(=O)(=O)N2CC=C(c3nc(Nc4cc(OC)c(OC)c(OC)c4)nc(N4CCOCC4)n3)CC2)cc1 | 47.8 | 30.6 | 34.9 | 50.3 | – |
| COc1cc(Nc2nc(C3=CCN(S(=O)(=O)c4ccc(Br)cc4)CC3)nc(N3CCOCC3)n2)cc(OC)c1OC | 30.6 | 40.4 | 43.6 | 32.5 | – |
| COc1cc(Nc2nc(C3=CCN(S(=O)(=O)c4ccc(Br)s4)CC3)nc(N3CCOCC3)n2)cc(OC)c1OC | 39.6 | 28 | 29 | 30.6 | – |
| COc1cc(Nc2nc(C3=CCN(C(=O)N4CCN(C)CC4)CC3)nc(N3CCOCC3)n2)cc(OC)c1OC | 40.2 | 34.9 | 34.6 | 40.8 | – |
| COc1cc(Nc2nc(C3=CCN(C(=O)N4CCCCC4)CC3)nc(N3CCOCC3)n2)cc(OC)c1OC | 34 | 41.7 | 30.8 | 40.5 | – |
| COc1cc(Nc2nc(C3=CCN(C(=O)c4ccncc4)CC3)nc(N3CCOCC3)n2)cc(OC)c1OC | 50.6 | 39.5 | 48.9 | 32.1 | – |
| COc1cc(Nc2nc(C3=CCN(C(=O)c4ccc(Br)cc4O)CC3)nc(N3CCOCC3)n2)cc(OC)c1OC | 43.9 | 38.9 | 45.9 | 28 | – |
| COc1cc(Nc2nc(C3=CCN(S(=O)(=O)c4ccc(C)cc4)CC3)nc(N3CCOCC3)n2)cc(OC)c1OC | 45.7 | 25 | 40.3 | 42.1 | – |
| COC(=O)Nc1nc2cc(C(=O)c3cccs3)ccc2[nH]1 [NOCODAZOLE] | 1.6 | 1.1 | – | 1.5 | inhibition (HeLa [2]): Active; inhibition (HeLa [3]): Active; Activity (HeLa [4]): Active; IC50 [5]: 0.8 µM; inhibition (HeLa [6]): Active |
| COc1cc(Nc2nc(C3=CCN(S(C)(=O)=O)CC3)nc(N3CCOCC3)n2)cc(OC)c1OC | 32 | 28.5 | 39 | 28.9 | – |
| COc1cc(Nc2nc(C3=CCN(S(=O)(=O)c4ccc([N+](=O)[O-])cc4)CC3)nc(N3CCOCC3)n2)cc(OC)c1OC | 32 | 43.2 | 34.6 | 40.3 | – |
| COc1cc(Nc2nc(C3=CCN(C(=O)c4ccco4)CC3)nc(N3CCOCC3)n2)cc(OC)c1OC | 45 | 37.1 | 51 | 32 | – |
| COc1cc(Nc2nc(C3=CCN(S(=O)(=O)c4ccc(Cl)cc4)CC3)nc(N3CCOCC3)n2)cc(OC)c1OC | 51 | 49.3 | 40.8 | 30.6 | – |
| COc1cc(Nc2nc(C3=CCN(S(=O)(=O)c4ccc(C(C)(C)C)cc4)CC3)nc(N3CCOCC3)n2)cc(OC)c1OC | 50.4 | 48.4 | 33.5 | 40.4 | – |
| COc1cc(Nc2nc(C3=CCN(C(=O)c4cccnc4Cl)CC3)nc(N3CCOCC3)n2)cc(OC)c1OC | 41 | 45 | 42.9 | 30.2 | – |
| COc1cc(Nc2nc(C3=CCN(C(=O)Nc4ccncc4)CC3)nc(N3CCOCC3)n2)cc(OC)c1OC | 34 | 50 | 32 | 38.5 | – |

Continued by falling IC50 (HeLa [1]), values first:

| IC50 (HeLa [1]) [µM] | IC50 (HepG2) [µM] | IC50 (A549) [µM] | IC50 (MCF7) [µM] | SMILES | other results |
| --- | --- | --- | --- | --- | --- |
| 50.6 | 30 | 45.6 | 29.6 | COc1cc(Nc2nc(C3=CCN(S(=O)(=O)c4ccc(F)cc4)CC3)nc(N3CCOCC3)n2)cc(OC)c1OC | – |
| 48.3 | 40 | 41.9 | 39.4 | COc1cc(Nc2nc(C3=CCN(C(=O)c4cnccn4)CC3)nc(N3CCOCC3)n2)cc(OC)c1OC | – |
| 45.7 | 50.6 | 49 | 40.2 | COc1cc(Nc2nc(C3=CCN(C(C)=O)CC3)nc(N3CCOCC3)n2)cc(OC)c1OC | – |
| 45.2 | 29 | 32 | 38.2 | COc1cc(Nc2nc(C3=CCN(C(=O)N4CCOCC4)CC3)nc(N3CCOCC3)n2)cc(OC)c1OC | – |
| 45 | 36.5 | 32 | 32.1 | COc1cc(Nc2nc(C3=CCN(S(=O)(=O)c4ccc(C(C)=O)cc4)CC3)nc(N3CCOCC3)n2)cc(OC)c1OC | – |
| 40.5 | 43.6 | 45.9 | 26.4 | COc1ccc(NC(=O)N2CC=C(c3nc(Nc4cc(OC)c(OC)c(OC)c4)nc(N4CCOCC4)n3)CC2)cc1 | – |
| 40.4 | 35.7 | 34 | 39.8 | COc1cc(Nc2nc(C3=CCN(C(=O)c4ccc(Br)cc4)CC3)nc(N3CCOCC3)n2)cc(OC)c1OC | – |
| 40.1 | 29.1 | 45.7 | 25.9 | COc1cc(Nc2nc(C3=CCN(C(=O)Nc4ccc(F)cc4)CC3)nc(N3CCOCC3)n2)cc(OC)c1OC | – |
| 39.6 | 40 | 29.6 | 49.1 | COc1cc(Nc2nc(C3=CCN(C(=O)N4CCN(c5ccc(C)cc5)CC4)CC3)nc(N3CCOCC3)n2)cc(OC)c1OC | – |
| 34.8 | 40.3 | 43.5 | 38.3 | COc1cc(Nc2nc(C3=CCN(C(=O)c4ccc(Cl)cc4)CC3)nc(N3CCOCC3)n2)cc(OC)c1OC | – |
| 34.2 | 29.8 | 42 | 40.4 | COc1cc(Nc2nc(C3=CCN(C(=O)CC#N)CC3)nc(N3CCOCC3)n2)cc(OC)c1OC | – |
| 33.2 | 32 | 43.9 | 29.8 | COc1cc(Nc2nc(C3=CCN(C(=O)Cc4c[nH]c5ccccc45)CC3)nc(N3CCOCC3)n2)cc(OC)c1OC | – |
| 32.9 | 32.9 | 43.2 | 30.5 | COc1cc(Nc2nc(C3=CCN(C(=O)CS)CC3)nc(N3CCOCC3)n2)cc(OC)c1OC | – |
| 32.1 | 27.2 | 29.9 | 40.5 | COc1cc(Nc2nc(C3=CCN(S(=O)(=O)c4ccc(C(F)(F)F)cc4)CC3)nc(N3CCOCC3)n2)cc(OC)c1OC | – |
| 32 | 51 | 33.5 | 50.5 | COc1cc(Nc2nc(C3=CCN(S(=O)(=O)c4ccccc4[N+](=O)[O-])CC3)nc(N3CCOCC3)n2)cc(OC)c1OC | – |
| 30.4 | 34.5 | 51 | 30.6 | COc1cc(Nc2nc(C3=CCN(C(=O)Nc4ccc(F)c(F)c4)CC3)nc(N3CCOCC3)n2)cc(OC)c1OC | – |
| 29.4 | 38.8 | 43.3 | 34 | COc1cc(Nc2nc(C3=CCN(C(=O)N4CCCC4)CC3)nc(N3CCOCC3)n2)cc(OC)c1OC | – |
| 12.3 | 9.6 | 10.5 | 11.7 | COc1cc(Nc2nc(C3=CCN(C(=O)c4ccc([N+](=O)[O-])o4)CC3)nc(N3CCOCC3)n2)cc(OC)c1OC | inhibition (HeLa [7]): Active; Activity (HeLa [8]): Active; IC50 [5]: 5.2 µM; inhibition (HeLa [9]): Active; inhibition (HeLa [10]): Active |
